What all share (details): Membrane
Experiment [1] addresses Inositol 1,4,5-trisphosphate-gated calcium channel ITPR3 (Rattus norvegicus) (UniProt Q63269). In words: Inositol 1,4,5-trisphosphate receptor activity by residual [3H]- IP3 binding to rat cerebellar membranes by the compound at logC = -7M.
The target is the same in experiment [2]. As to the kind of experiment: Inositol 1,4,5-trisphosphate receptor activity by residual [3H]- IP3 binding to rat cerebellar membranes by the compound at logC = -9M.
Experiment [3] shares this target. In words: Inositol 1,4,5-trisphosphate receptor activity by residual [3H]- IP3 binding to rat cerebellar membranes by the compound at logC = -5M.
The target is the same in experiment [4]. As to the kind of experiment: Inositol 1,4,5-trisphosphate receptor activity by residual [3H]- IP3 binding to rat cerebellar membranes by the compound at logC = -8M.
Experiment [5] has the same target. In words: Inositol 1,4,5-trisphosphate receptor activity by residual [3H]- IP3 binding to rat cerebellar membranes by the compound at logC = -6M.

Sequence of Inositol 1,4,5-trisphosphate-gated calcium channel ITPR3 (Rattus norvegicus) (Q63269 whole entry): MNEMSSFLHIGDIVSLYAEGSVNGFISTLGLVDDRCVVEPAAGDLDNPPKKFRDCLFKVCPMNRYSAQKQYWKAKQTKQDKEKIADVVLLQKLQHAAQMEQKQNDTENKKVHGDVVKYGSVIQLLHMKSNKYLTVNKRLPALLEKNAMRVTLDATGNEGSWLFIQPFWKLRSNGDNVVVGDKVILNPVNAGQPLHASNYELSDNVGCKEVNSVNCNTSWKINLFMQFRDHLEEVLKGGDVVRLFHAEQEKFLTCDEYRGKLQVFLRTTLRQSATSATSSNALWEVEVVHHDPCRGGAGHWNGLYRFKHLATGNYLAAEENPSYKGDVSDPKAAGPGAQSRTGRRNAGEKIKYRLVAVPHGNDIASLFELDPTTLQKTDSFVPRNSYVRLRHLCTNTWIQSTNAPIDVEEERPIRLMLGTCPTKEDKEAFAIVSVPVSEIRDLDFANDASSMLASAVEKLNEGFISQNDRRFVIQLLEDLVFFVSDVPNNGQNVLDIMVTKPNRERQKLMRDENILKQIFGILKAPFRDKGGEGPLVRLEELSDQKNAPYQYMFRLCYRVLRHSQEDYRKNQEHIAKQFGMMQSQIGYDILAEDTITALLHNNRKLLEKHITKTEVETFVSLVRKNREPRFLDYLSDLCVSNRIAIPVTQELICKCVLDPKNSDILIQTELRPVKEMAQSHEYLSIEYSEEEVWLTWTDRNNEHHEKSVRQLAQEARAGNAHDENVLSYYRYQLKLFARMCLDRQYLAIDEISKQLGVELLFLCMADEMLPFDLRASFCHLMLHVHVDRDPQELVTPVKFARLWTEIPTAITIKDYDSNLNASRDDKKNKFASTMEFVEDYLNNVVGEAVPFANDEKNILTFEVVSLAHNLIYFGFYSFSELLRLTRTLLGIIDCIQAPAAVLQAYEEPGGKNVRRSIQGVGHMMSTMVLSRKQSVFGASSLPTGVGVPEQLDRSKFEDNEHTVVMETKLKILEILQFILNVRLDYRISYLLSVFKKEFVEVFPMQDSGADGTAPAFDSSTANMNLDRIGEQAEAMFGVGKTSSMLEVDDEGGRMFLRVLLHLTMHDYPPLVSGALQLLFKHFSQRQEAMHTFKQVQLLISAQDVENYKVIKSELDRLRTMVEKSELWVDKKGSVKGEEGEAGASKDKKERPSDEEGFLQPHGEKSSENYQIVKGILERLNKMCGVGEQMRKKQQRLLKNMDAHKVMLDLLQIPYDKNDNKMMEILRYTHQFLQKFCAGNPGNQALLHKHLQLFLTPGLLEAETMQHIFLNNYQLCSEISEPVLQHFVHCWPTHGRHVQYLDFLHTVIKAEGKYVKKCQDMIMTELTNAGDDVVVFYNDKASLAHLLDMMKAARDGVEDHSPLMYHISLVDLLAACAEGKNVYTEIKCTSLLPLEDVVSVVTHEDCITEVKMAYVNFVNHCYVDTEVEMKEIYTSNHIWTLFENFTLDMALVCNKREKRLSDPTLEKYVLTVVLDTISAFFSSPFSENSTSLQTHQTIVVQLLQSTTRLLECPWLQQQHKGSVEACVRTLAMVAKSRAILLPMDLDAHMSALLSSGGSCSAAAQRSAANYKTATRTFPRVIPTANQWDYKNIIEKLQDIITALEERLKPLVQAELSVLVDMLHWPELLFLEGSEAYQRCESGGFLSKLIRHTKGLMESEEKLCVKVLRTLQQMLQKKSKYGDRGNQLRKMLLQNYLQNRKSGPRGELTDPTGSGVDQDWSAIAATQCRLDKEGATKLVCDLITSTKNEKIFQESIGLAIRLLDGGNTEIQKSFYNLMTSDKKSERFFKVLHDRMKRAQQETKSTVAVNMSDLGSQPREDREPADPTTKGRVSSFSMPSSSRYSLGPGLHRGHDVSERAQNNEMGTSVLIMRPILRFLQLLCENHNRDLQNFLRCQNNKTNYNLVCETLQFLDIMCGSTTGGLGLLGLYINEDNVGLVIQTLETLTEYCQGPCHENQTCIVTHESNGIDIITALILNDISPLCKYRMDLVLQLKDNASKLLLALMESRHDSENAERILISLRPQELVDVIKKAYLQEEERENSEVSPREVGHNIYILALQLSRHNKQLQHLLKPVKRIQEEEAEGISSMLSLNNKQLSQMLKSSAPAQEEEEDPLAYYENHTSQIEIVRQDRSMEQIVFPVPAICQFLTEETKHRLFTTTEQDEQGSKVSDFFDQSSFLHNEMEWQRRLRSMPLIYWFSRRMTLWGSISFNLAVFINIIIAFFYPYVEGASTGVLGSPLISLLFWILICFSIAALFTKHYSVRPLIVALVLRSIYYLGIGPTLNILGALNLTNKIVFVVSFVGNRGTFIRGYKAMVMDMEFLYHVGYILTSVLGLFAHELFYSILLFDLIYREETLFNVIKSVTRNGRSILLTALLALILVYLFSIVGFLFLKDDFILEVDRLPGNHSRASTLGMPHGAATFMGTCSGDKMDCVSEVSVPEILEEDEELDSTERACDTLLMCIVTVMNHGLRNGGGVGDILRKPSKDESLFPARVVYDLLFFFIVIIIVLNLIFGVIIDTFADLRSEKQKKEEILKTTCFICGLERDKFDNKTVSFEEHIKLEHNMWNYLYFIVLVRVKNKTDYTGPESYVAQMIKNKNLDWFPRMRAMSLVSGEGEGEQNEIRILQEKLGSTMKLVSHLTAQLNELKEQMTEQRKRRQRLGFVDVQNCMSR

On to `O=P(O)(O)O[C@@H]1[C@@H](O)[C@H](OP(=O)(O)O)[C@H](O)C[C@@H]1OP(=O)(O)O`, for which the residual activity in experiment [1] came to 100%; in experiment [2], 100%; in experiment [3] it was 40%; in experiment [4], 110%; in experiment [5], 80%.
With `O=P(O)(O)O[C@@H]1[C@H](O)[C@@H](O)[C@@H](OP(=O)(O)O)[C@H](OP(=O)(O)O)[C@H]1O`, the residual activity in experiment [1] amounted to 20%; in experiment [2], 95%; in experiment [3], 5%; in experiment [4], 70%; in experiment [5] it was 5%.
As to `O=P(O)(O)O[C@@H]1[C@@H](O)[C@H](OP(=O)(O)O)[C@H](O)C[C@H]1OP(=O)(O)O`, the residual activity in experiment [1] amounted to 50%; in experiment [4], 100%; in experiment [5], 20%.

What is called residual activity is the signal under treatment as a percentage of the control signal.

Values taken from ChEMBL document CHEMBL1128623, “Influence of the absolute configuration at C-4 in the binding of d-myoinositol 1,4,5 trisphosphate analogues to IP3 receptor” (Bioorg Med Chem Lett, 1995).
